In assay [1] the target is EGFR L858R/T790M/C797S (BaF3-LTC cells) (Homo sapiens (Human), UniProt P00533, C797S/L858R/T790M). As to the kind of experiment: EGFR degradation HTRF assay in BaF3-LTC cells. Conditions: 16 h treatment; for DC50: Table 2, read-out: BaF3-LTC DC50; for Dmax: maximum percentage of degradation, Table 2, read-out: BaF3-LTC Dmax. The format is cell-based. How it is done: (§1) BaF3-LTC(L858R/T790M/C797S) and BaF3-DTC(Del19/T790M/C797S) cells are treated with compounds diluted in 0.2% DMSO cell culture medium and incubate for 16 h, 37° C., 5% CO2, H1975- #28 cells are treated with compounds diluted in 0.2% DMSO cell culture medium on day 2, incubate for 16 h, 37° C., 5% CO2. the final concentration of compounds in all assay is start with 10 uM, 5-fold dilution, total 8 doses were included.
(§2) After 16 h treatment, add HTRF lysis buffer to each well; seal the plate and incubate 1 hour at room temperature on a plate shaker; Once the cells are lysed, 16 μL of cell lysate are transferred to a PE 384-well HTRF detection plate; 4 μL of pre-mixed HTRF antibodies are added to each well; Cover the plate with a plate sealer, spin 1000 rpm for 1 min, Incubate overnight at room temperature; Read on BMG PheraStar with HTRF protocol (337 nm-665 nm-620 nm).
(§3) The IC50 (DC50) value of a compound can be obtained by fitting the following equation
(§4) Y=Bottom+(TOP−Bottom)/(1+((IC50/X)^hillslope))
(§5) Wherein, X and Y are known values, and IC50, Hillslope, Top and Bottom are the parameters obtained by fitting with software. Y is the inhibition percentage (calculated from the equation), X is the concentration of the compound; IC50 is the concentration of the compound when the 50% inhibition is reached. The smaller the IC50 value is, the stronger the inhibitory ability of the compound is. Vice versa, the higher the IC50 value is, the weaker the ability the inhibitory ability of the compound is; Hillslope represents the slope of the fitted curve, generally around 1*; Bottom represents the minimum value of the curve obtained by data fitting, which is generally 0%±20%; Top represents the maximum value of the curve obtained by data fitting, which is generally 100%±20%. The experimental data were fitted by calculating and analyzing with Dotmatics data analysis software.
A general note: Time-resolved FRET reads energy transfer from a long-lived donor to a nearby acceptor.

For assay [2], the system named is EGFR Del19/T790M/C797S (H1975-clone #28 cells). The assay can be described thus: EGFR degradation HTRF assay in H1975-clone #28 cells. The format is cell-based. The settings on record: H1975-clone #28(Del19/T790M/C797S) cells, 16 h treatment, Table 2; for DC50: read-out: H1975 # 28 DTC DC50; for H1975 # 28 DTC Dmax: maximum percentage of degradation. The method, then: H1975-clone #28(Del19/T790M/C797S) was stably expressed in H1975 cell lines (from ATCC) by lentivirus-mediated over-expression. The EGFR over-expressed cells then underwent gene knockout, in which the EGFR targeting sgRNA was designed to only target the endogenous EGFR copies and preserve the exogenous EGFR copies. Followed by the gene knockout, the edited H1975 cells were seeded in 96 well plates at the concentration of […], cultured for about 2 weeks to allow single clones formation. The formed clones were screened by DNA sequencing and whole exon sequencing analysis for the desired edition. H1975-clone #28 was finally confirmed as homozygous Del19/T790M/C797S EGFR clone
as §1, §2, §3, §4, §5

The next assay addresses CRBN&DDB1 protein (Homo sapiens (Human), UniProt Q96SW2). The assay can be described thus: CRBN&DDB1 HTRF (TR-FRET) assay, blocking binding of biotin labeled thalidomide. Conditions: CRBN&DDB1 protein (His Tag), 30 nM biotin labeled thalidomide. How it is done:
Biochemical potency of compound was determined by using CRBN& DDB1 protein (His Tag). Compounds were tested for blocking the binding of CRBN&DDB1 protein (CRBN, aa 40-442, DDB1, 1-1140, Viva Biotech) with biotin labeled thalidomide in an assay based on the time-resolved fluorescence-resonance energy transfer (TR-FRET) methodology. The assay was carried out in 384-well low volume black plates in a reaction mixture containing CRBN& DDB1 protein, 30 nM biotin labeled thalidomide and 0-10 μM compound in buffer containing 50 mM HEPES pH7.5, 50 mM NaCl, 0.01% BSA, 1 mM DTT and 0.015% Brij-35. The protein was preincubated with compound for 60 minutes at room temperature and biotin labeled thalidomide was added to plate. After further incubation at room temperature for 60 minutes detection reagents Mab Anti-6His Eu cryptate Gold (Cisbio, Cat #61HI2KLB) and Streptavidin-XL665 (Cisbio, Cat #610SAXLG) were added to plate. Plates were sealed and incubated at room temperature for 1 hour, and the TR-FRET signals (ex337 nm, em665 nm/620 nm) were recorded on a PHERAstar FSX plate reader (BMG Labtech). The inhibition percentage of CRBN& DDB1 protein interaction with biotin labeled thalidomide in presence of increasing concentrations of compounds was calculated based on the ratio of fluorescence at 665 nm to that at 620 nm. IC50 was derived from fitting the dose-response % inhibition data to the four-parameter logistic model by Dotmatics.
Four-parameter logistic equation: Y=Bottom+(Top−Bottom)/(1+10^((LogIC50−X) *HillSlope)). While X is Log of compound concentration. Y is % inhibition at X. Bottom is the bottom of the curve effect. Top is the top of the curve effect. HillSlope is the hill slope factor.

Each structure is given as a SMILES string. Some results are limits rather than exact numbers.

CRBN&DDB1 protein, sequence (Q96SW2 40-442): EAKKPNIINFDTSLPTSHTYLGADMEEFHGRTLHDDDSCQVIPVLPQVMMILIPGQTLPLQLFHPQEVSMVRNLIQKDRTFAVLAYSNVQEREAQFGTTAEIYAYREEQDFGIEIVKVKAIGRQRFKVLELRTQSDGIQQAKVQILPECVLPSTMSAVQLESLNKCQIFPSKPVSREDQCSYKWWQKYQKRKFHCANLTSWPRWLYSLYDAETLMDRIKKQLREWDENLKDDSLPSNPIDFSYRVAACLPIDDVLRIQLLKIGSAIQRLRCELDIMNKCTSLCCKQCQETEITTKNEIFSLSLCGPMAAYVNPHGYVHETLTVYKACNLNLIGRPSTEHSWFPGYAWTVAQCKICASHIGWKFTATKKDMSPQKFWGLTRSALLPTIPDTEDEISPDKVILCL
CRBN&DDB1 protein, sequence (Q16531 whole entry partner, the tested form may be a part): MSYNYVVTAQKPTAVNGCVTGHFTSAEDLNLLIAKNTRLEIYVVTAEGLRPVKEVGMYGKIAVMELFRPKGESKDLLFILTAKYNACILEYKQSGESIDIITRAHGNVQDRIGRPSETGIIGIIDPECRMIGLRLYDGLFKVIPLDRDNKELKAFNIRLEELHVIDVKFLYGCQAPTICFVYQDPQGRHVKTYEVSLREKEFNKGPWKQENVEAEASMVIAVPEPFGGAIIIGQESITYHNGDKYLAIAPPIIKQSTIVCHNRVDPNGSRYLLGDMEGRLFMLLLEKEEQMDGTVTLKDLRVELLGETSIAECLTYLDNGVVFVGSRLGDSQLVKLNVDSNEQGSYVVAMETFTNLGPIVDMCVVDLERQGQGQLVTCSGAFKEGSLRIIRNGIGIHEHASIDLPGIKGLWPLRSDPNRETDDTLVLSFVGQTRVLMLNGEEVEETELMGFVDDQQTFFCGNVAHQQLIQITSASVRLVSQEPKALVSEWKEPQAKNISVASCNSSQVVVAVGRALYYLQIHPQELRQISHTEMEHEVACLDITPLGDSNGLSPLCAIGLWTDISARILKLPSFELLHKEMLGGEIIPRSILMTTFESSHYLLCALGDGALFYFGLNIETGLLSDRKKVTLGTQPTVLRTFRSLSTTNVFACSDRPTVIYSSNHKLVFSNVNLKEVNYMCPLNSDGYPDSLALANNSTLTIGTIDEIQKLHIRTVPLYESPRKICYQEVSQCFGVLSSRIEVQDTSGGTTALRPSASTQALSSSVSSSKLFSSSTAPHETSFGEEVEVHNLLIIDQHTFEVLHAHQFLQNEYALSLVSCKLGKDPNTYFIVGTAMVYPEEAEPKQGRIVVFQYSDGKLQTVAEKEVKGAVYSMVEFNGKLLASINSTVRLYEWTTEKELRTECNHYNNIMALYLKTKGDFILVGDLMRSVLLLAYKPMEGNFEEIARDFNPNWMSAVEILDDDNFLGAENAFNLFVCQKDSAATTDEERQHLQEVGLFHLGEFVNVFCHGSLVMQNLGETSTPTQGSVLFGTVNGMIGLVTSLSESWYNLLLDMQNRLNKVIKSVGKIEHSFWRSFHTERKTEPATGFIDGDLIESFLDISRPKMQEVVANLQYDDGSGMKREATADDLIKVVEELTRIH
EGFR L858R/T790M/C797S (BaF3-LTC cells), sequence (P00533 25-1210 T790M/C797S/L858R): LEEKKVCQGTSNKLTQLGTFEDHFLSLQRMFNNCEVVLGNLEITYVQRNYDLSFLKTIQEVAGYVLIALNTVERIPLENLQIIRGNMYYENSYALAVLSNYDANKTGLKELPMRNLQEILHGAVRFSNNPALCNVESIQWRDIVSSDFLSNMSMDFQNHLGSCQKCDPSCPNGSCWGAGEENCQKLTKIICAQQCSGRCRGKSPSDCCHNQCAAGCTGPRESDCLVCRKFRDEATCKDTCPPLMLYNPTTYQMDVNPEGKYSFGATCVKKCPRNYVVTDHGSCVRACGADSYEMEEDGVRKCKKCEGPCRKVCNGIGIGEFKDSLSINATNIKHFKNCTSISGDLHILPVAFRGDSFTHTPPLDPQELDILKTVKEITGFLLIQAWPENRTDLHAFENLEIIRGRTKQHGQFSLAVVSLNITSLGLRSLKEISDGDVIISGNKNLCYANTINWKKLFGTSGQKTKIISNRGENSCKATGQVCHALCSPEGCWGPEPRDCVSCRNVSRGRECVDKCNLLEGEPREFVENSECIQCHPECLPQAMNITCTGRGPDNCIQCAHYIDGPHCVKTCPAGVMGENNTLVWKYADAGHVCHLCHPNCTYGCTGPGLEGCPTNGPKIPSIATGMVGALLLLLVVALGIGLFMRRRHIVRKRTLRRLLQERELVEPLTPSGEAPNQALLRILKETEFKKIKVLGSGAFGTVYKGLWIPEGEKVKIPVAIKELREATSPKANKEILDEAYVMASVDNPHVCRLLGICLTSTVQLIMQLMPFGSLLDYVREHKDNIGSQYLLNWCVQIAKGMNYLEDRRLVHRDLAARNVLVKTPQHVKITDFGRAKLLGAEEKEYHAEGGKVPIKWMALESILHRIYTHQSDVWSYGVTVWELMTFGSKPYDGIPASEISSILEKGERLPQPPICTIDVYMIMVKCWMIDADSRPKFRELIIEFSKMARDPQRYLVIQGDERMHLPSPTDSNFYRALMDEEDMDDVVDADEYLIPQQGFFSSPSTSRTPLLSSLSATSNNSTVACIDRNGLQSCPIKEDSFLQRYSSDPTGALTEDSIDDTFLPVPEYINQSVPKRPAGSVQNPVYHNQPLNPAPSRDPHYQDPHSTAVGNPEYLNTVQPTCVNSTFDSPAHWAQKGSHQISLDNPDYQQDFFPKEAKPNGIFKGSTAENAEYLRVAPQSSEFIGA

Regarding `CCc1ccc2c(P(C)(C)=O)c(Nc3nc(Nc4cc(CC)c(N5CCC(N6CCN(CCc7cc(F)c([C@@H]8CCC(=O)NC8=O)c(F)c7)CC6)CC5)cc4OC)ncc3Br)ccc2n1` [Example 20, (S)-3-(4-(2-(4-(1-(4-((5-bromo-4-((5-(dimethylphosphoryl)-2-ethylquinolin-6-yl)amino)pyrimidin-2-yl)amino)-2-ethyl-5-methoxyphenyl)piperidin-4-yl)piperazin-1-yl)ethyl)-2,6-difluorophenyl)piperidine-2,6-dione], in assay [1], the DC50 was 90 nM and the greatest degradation seen (Dmax) was 69%. In assay [2], the half-maximal degradation concentration (DC50) is greater than 10000 nM and the “H1975 # 28 DTC Dmax” value is given as 19.09%.

On CRBN&DDB1 protein, `O=C1CCC(c2c(F)cc(N3CC(CO)C3)cc2F)C(=O)N1` (stereo not shown) [Example 9, 3-(2,6-difluoro-4-(3-(hydroxymethyl)azetidin-1-yl)phenyl)piperidine-2,6-dione] showed an IC50 of 64 nM.

As for `O=C1CC[C@@H](c2c(F)cc(N3CC[C@@H](C(=O)O)C3)cc2F)C(=O)N1` [Example 6, (R)-1-(4-((S)-2,6-dioxopiperidin-3-yl)-3,5-difluorophenyl)pyrrolidine-3-carboxylic acid], the IC50 on CRBN&DDB1 protein was 1070 nM.

On to `CCc1ccc2c(P(C)(C)=O)c(Nc3nc(Nc4cc(CC)c(N5CCC(N6CCN(CCc7cc(F)c([C@H]8CCC(=O)NC8=O)c(F)c7)CC6)CC5)cc4OC)ncc3Br)ccc2n1` [Example 21, (R)-3-(4-(2-(4-(1-(4-((5-bromo-4-((5-(dimethylphosphoryl)-2-ethylquinolin-6-yl)amino)pyrimidin-2-yl)amino)-2-ethyl-5-methoxyphenyl)piperidin-4-yl)piperazin-1-yl)ethyl)-2,6-difluorophenyl)piperidine-2,6-dione], for which the results for the 50% degradation concentration (DC50) in assay [1] and in assay [2] were 6.77 nM and 0.78 nM, respectively. The “H1975 # 28 DTC Dmax” value in assay [2] was determined as 89.6%.

As for `CCc1cc(Nc2ncc(Br)c(Nc3ccc4nc(C)ccc4c3P(C)(C)=O)n2)c(OC)cc1N1CCC(N2CCN(C(=O)[C@@H]3CCN(c4ccc([C@@H]5CCC(=O)NC5=O)cc4)C3)CC2)CC1` [Example 29, (S)-3-(4-((R)-3-(4-(1-(4-((5-bromo-4-((5-(dimethylphosphoryl)-2-methylquinolin-6-yl)amino)pyrimidin-2-yl)amino)-2-ethyl-5-methoxyphenyl)piperidin-4-yl)piperazine-1-carbonyl)pyrrolidin-1-yl)phenyl)piperidine-2,6-dione], in assay [1], the DC50 was found to be 85.4 nM and the Dmax amounted to 77.1%. In assay [2], the DC50 is greater than 10000 nM and the “H1975 # 28 DTC Dmax” value is recorded as −4.12%.

For `O=C1CC[C@H](c2c(F)cc(N3CC[C@@H](CO)C3)cc2F)C(=O)N1` [Example 7, (R)-3-(2,6-difluoro-4-((R)-3-(hydroxymethyl)pyrrolidin-1-yl)phenyl)piperidine-2,6-dione], the IC50 on CRBN&DDB1 protein came out at 22 nM.

Consider `O=C1CCC(c2ccc(CCO)cc2)C(=O)N1` (stereo not shown) [Example 15, 3-(4-(2-hydroxyethyl)phenyl)piperidine-2,6-dione], for which, on CRBN&DDB1 protein, the IC50 is 239 nM.

With `CC1(C)CN(c2cc(F)c([C@H]3CCC(=O)NC3=O)c(F)c2)C[C@H]1C(=O)O` [Example 14, (S)-1-(4-((R)-2,6-dioxopiperidin-3-yl)-3,5-difluorophenyl)-4,4-dimethylpyrrolidine-3-carboxylic acid], the IC50 on CRBN&DDB1 protein stood at 24 nM.

`CCc1cc(Nc2ncc(Br)c(Nc3ccc4nc(C)ccc4c3P(C)(C)=O)n2)c(OC)cc1N1CCC(N2CCN(C(=O)[C@@H]3CCN(c4cc(F)c([C@H]5CCC(=O)NC5=O)c(F)c4)C3)CC2)CC1` [Example 22, (R)-3-(4-((R)-3-(4-(1-(4-((5-bromo-4-((5-(dimethylphosphoryl)-2-methylquinolin-6-yl)amino)pyrimidin-2-yl)amino)-2-ethyl-5-methoxyphenyl)piperidin-4-yl)piperazine-1-carbonyl)pyrrolidin-1-yl)-2,6-difluorophenyl)piperidine-2,6-dione]: the DC50 in assay [1] is 5.23 nM. Further, in assay [2], the 50% degradation concentration (DC50) was found to be 1.17 nM and the “H1975 # 28 DTC Dmax” value is on record as 84.8%.

On to `CCc1ccc2c(P(C)(C)=O)c(Nc3nc(Nc4cc(CC)c(N5CCC(N6CCN(C(=O)[C@@H]7CCN(c8cc(F)c([C@H]9CCC(=O)NC9=O)c(F)c8)C7)CC6)CC5)cc4OC)ncc3Br)ccc2n1` [Example 24, (R)-3-(4-((R)-3-(4-(1-(4-((5-bromo-4-((5-(dimethylphosphoryl)-2-ethylquinolin-6-yl)amino)pyrimidin-2-yl)amino)-2-ethyl-5-methoxyphenyl)piperidin-4-yl)piperazine-1-carbonyl)pyrrolidin-1-yl)-2,6-difluorophenyl)piperidine-2,6-dione], for which the DC50 in assay [1] was 8.99 nM; in assay [2], 1.37 nM. In assay [2], the “H1975 # 28 DTC Dmax” value amounted to 82.72%.

`CCc1cc(Nc2ncc(Br)c(Nc3ccc4nc(C)ccc4c3P(C)(C)=O)n2)c(OC)cc1N1CCC(N2CCN(C(=O)[C@@H]3CCN(c4ccc([C@H]5CCC(=O)NC5=O)cc4)C3)CC2)CC1` [Example 28, (R)-3-(4-((R)-3-(4-(1-(4-((5-bromo-4-((5-(dimethylphosphoryl)-2-methylquinolin-6-yl)amino)pyrimidin-2-yl)amino)-2-ethyl-5-methoxyphenyl)piperidin-4-yl)piperazine-1-carbonyl)pyrrolidin-1-yl)phenyl)piperidine-2,6-dione]: the DC50 in assay [1] came to 7.8 nM. In assay [2], the DC50 is 0.595 nM and the “H1975 # 28 DTC Dmax” value was determined as 62.25%.

Regarding `CCc1cc(Nc2ncc(Br)c(Nc3ccc4nc(C)ccc4c3P(C)(C)=O)n2)c(OC2CC2)cc1N1CCC(N2CCN(CCc3cc(F)c([C@H]4CCC(=O)NC4=O)c(F)c3)CC2)CC1` [Example 26, (R)-3-(4-(2-(4-(1-(4-((5-bromo-4-((5-(dimethylphosphoryl)-2-methylquinolin-6-yl)amino)pyrimidin-2-yl)amino)-5-cyclopropoxy-2-ethylphenyl)piperidin-4-yl)piperazin-1-yl)ethyl)-2,6-difluorophenyl)piperidine-2,6-dione], in assay [2], the DC50 turned out to be 0.851 nM and the “H1975 # 28 DTC Dmax” value was found to be 86.08%.

For `CCc1ccc2c(P(C)(C)=O)c(Nc3nc(Nc4cc(CC)c(N5CCC(N6CCN(C(=O)[C@@H]7CCN(c8cc(F)c([C@@H]9CCC(=O)NC9=O)c(F)c8)C7)CC6)CC5)cc4OC)ncc3Br)ccc2n1` [Example 25, (S)-3-(4-((R)-3-(4-(1-(4-((5-bromo-4-((5-(dimethylphosphoryl)-2-ethylquinolin-6-yl)amino)pyrimidin-2-yl)amino)-2-ethyl-5-methoxyphenyl)piperidin-4-yl)piperazine-1-carbonyl)pyrrolidin-1-yl)-2,6-difluorophenyl)piperidine-2,6-dione], in assay [1], the 50% degradation concentration (DC50) was 360 nM and the Dmax was 57.2%. Also, in assay [2], the DC50 is greater than 10000 nM and the “H1975 # 28 DTC Dmax” value is listed as −8.4%.

In general, DC50 refers to the midpoint of the concentration-degradation curve. For orientation: Dmax means the greatest extent of degradation seen. As a reminder, the IC50 is the point on the concentration scale where inhibition reaches its midpoint. Lower therefore signals greater potency.
